{"source": "patent US20030165586A1", "about": "“Anti-angiogenic composition comprising ticlopidine and gingko biloba extract” (priority 2003, published 2003)", "key": {"[1]": {"system": "Human umbilical vein endothelial cells (HUVECs)", "assay": "Tube formation assay of HUVEC in Matrigel", "format": "cell-based", "details": "50 μM ticlopidine alone; total tube area per well relative to control (100)", "description": "The tube formation assay was performed as follows: 48-well plates were coated with 0.2 ml of Matrigel (BD Bioscience, Bedford, Mass., USA) and incubated at 37° C. for 1 hr. 4˜6×10^4 HUVECs resuspended in 0.4 ml of M199 medium were added to each well. Ticlopidine (Sigma Chemical Co., USA) and Ginkgo biloba extract (Hwa Il Pharmaceutical Co., LTD, Korea), a standardized extract that contained 24% flavonoid glycosides and 6% terpenoids, were added to the Matrigel. Final concentration of ticlopidine and Ginkgo biloba extract were 25 μM and 5 μg/ml, respectively. As a control, the procedure was repeated without added ticlopidine and Ginkgo biloba extract. Comparative runs were also conducted by the same procedure using ticlopidine alone (comparative run 1) or only with Ginkgo biloba extract (comparative run 2). The extent of tube formation was determined by measuring the total tube area per well relative to that of the control using image analysis program Image-Pro Pluso (Media Cybernetics, USA)."}, "[2]": {"system": "formation of blood vessels in Matrigel", "assay": "Matrigel plug assay (hemoglobin in bFGF/heparin Matrigel implanted in mice)", "format": "in vivo, C57BL/6 female mice", "details": "0.65 mg/mouse orally twice per day for four days; control = 100", "description": "0.4 ml portion of Matrigel each mixed with 50 ng/ml of basic fibroblast growth factor (bFGF) and 50 units of heparin were implanted by subcutaneous injection in 5-week-old C57BL/6 female mice, and a mixture of 0.65 mg ticlopidine and 0.4 mg Ginkgo biloba extract was orally administrated to each mouse twice per day for four days. Then each mouse was sacrificed and the Matrigel was excised. For comparison, the procedure was repeated using ticlopidine or Ginkgo biloba extract alone. The formation of blood vessels in Matrigel was tested by measuring the amount of hemoglobin (Hb) in the Matrigel using the Drabkin reagent kit (Sigma Chemical Co., St. Louise, Mich., USA) which contained standards of known amounts of Hb."}}}
{"compound": "Clc1ccccc1CN1CCc2sccc2C1", "note": "[Ticlopidine, 5-[(2-chlorophenyl)methyl]-4,5,6,7-tetrahydrothieno[3,2-C]pyridine]", "values": [{"measurement": "Total Tube Area %", "setting": "[1]", "value": 91, "unit": "%"}, {"measurement": "Hemoglobin (%)", "setting": "[2]", "value": 95, "unit": "%"}]}
